Here are results for four compounds from US10711261B2 (priority 2015, dated 2020).

In series [1] the target is recombinant human WT SOD1 (Homo sapiens, UniProt P00441). The class given is binding.
A further series concerns the target WT DJ-1 (Homo sapiens, UniProt Q99497). The class given is binding.
Series [2] deals with T1, DJ-1 (Homo sapiens, UniProt Q99497). The class given is binding.
Series [3] deals with T1, DJ-1. Format: binding. This is another data set of the same source.
For series [4] the following is noted: in vivo; cited from earlier work.

“Also recorded” adds a separate entry of the source.

WT DJ-1, sequence (Q99497 whole entry): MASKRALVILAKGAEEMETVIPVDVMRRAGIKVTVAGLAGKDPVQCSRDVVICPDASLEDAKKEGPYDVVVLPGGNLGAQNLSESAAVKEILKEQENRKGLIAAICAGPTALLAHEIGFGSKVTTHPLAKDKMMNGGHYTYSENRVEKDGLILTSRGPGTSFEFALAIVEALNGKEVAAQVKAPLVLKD
T1 sequence (Q99497 whole entry): as above
recombinant human WT SOD1, sequence (P00441 2-154): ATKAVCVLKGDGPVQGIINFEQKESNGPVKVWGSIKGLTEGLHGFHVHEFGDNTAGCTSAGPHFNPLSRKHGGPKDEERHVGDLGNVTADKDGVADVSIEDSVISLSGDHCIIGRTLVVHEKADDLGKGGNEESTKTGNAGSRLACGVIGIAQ

Turning to `OCC1(CO)CSSC1` [1,2-dithiolane-4,4-dimethanol], the “covalent dimerization of SOD1 (change in mass of covalently linked SOD1 dimers)” value in series [1] is on record as “capable of covalently dimerizing SOD1”.

For the compound `[O-][S+]1CCCCS1` (stereo not drawn) [NSC56224, 1-oxo-1,2-dithiane], the “covalent dimerization of DJ-1” value at WT DJ-1 is recorded as “identified as a covalent dimerizer of DJ-1”. At DJ-1 [2], the “site of covalent linkage in DJ-1 dimer” value is “covalently linked DJ-1 dimers at Cys53; also recorded: two trypsin digest fragments of DJ-1 containing Cys53 (underlined) linked by NSC56224”. Also, in series [1], the “covalent dimerization of SOD1 (change in mass of covalently linked SOD1 dimers)” value was “capable of covalently dimerizing SOD1” and the “extent of cross-linking of SOD1 monomers” value is given as “able to cross-link the majority of SOD1 monomers in the sample”. For the same compound, on DJ-1 [3], the “denaturation temperature of DJ-1 (thermal stability)” value is on record as “increase the measured denaturation temperature of DJ-1 relative to untreated DJ-1”.

On to `NC(=O)NN=C1CSSC1` [NSC72268], for which the “covalent dimerization of DJ-1” value on WT DJ-1 was “identified as a specific DJ-1 covalent dimerizer; also recorded: specific covalent dimerizer of DJ-1”. The “denaturation temperature of DJ-1 (thermal stability)” value at DJ-1 [3] is “increase the measured denaturation temperature of DJ-1 relative to untreated DJ-1”.

As to `CC(C)C[C@H](NC(=O)[C@H](Cc1ccccc1)NC(=O)c1cnccn1)B(O)O` [bortezomib], in series [4], the LD100 was less than 0.25 mg/kg.
